Assay results as given in patent US5445941A, “Method for screening anti-osteoporosis agents” (Eli Lilly and Company, priority 1993, dated 1995).
Entries after “also recorded” stand apart in the source; their conditions may differ.

How the values were obtained:
[1] = system: LDL receptor messenger RNA; details: in vivo; cited from earlier work
TGFβ-3 promoter [2] = assay: TGFβ-3 promoter transcription in RL59.2, HeLa and COS-1 cells; type: cell-based, human; details: RL59.2, HeLa and COS-1 (monkey kidney) cells
Procedure: Similar assays were performed in human endometrial cancer cells (RL59.2), human cervical cancer cells (HeLa) and monkey kidney cells (COS-1) (American Type Culture Collection, Rockville, Md.).

TGFβ-3 promoter [3] = assay: ER dependent induction of TGFβ-3 promoter (pB2-499) in MG63 cells; type: cell-based, human
Excerpt: It was known in the prior art that the ability of both estrogens and antiestrogens to influence TGFβ production is dependent on the expression of estrogen receptor (ER), but the level at which this influence is exerted was not known (i.e. transcriptional, translational or post-translational). A series of experiments were therefore performed to investigate the putative dependence on ER expression of induction of reporter gene expression using the TGFβ promoter-containing constructs of the invention.
Cultures of MG63 were prepared for co-transfection as in Example IV. One such culture was co-transfected with pB2-499 and pRSVER and another was co-transfected with pB2499 and pRSV vector plasmid (as a control).
(b) 17β-estradiol (10^-7 M)

TGFβ-1 mRNA = details: HEC-50, 1% ctFBS; cited from earlier work
TGFβ-3 promoter [4] = assay: CAT reporter expression, TGFβ-3 promoter (pB-499), MG63 cells cotransfected with pRSVER
Procedure: (§3) Co-transfection experiments were performed in MG63 (human osteosarcoma) cells, using the ProFection Mammalian Transfection System (Promega). […] The cells were then refed with fresh 3:1 media containing 10% csFBS. Compounds to be evaluated for their ability to modulate reporter gene expression were added at the appropriate times and assayed as described below.
(§4) Cultures of MG63 cells were transiently co-transfected with pRSVER plasmid and either phTG12, pTGF-1, or pB2-499 using the ProFection system (Promega). For each transfected cell culture, DNA-containing calcium phosphate precipitates were added dropwise to each culture dish and mixed thoroughly in the media. The pH of the media was carefully maintained between pH 7.2 and pH 7.4. Transfected cell cultures were then incubated overnight in a 5% CO2 atmosphere at 37° C. For all cultures, the precipitate was removed after overnight incubation by aspirating the media from the culture dishes, followed by rinsing each dish twice with D-PBS. For each cotransfected cell line, the buffer was replaced with 10 ml fresh medium containing 10% csFBS and one of the following compositions:
(§5) a. 10 μl ethanol (hormone vehicle)=control;
(§6) b. 10 μl 17β-estradiol (Sigma) ("estradiol") at a concentration of 10^-4 M in ethanol;
(§7) d. 10 μl Tamoxifen (Sigma) at a concentration of 10^-4 M in ethanol.
(§8) After 24 h incubation with these hormonal preparations (or the vehicle control), cells were washed twice with D-PBS. The cells were then scraped from the culture dishes using a rubber policeman and 1 ml of D-PBS. Cells were collected by centrifugation at 8,000 rpm for 2 minutes in a tabletop centrifuge (MicroMax Model, IEC, Newark, N.Y.). The supernatant was removed and the cell pellets were resuspended in 150 μL of a 0.25M Tris-HCl solution (pH 7.8). Cells were lysed by three cycles of freezing in a dry ice/ethanol bath and thawing in a water bath at 37° C. water bath (for 3 minutes each cycle). Lysed cell preparations were centrifuged at 15,000 rpm for 5 minutes at 4° C. to remove cell debris. Supernatants containing the soluble cell lysate were transferred to a new set of tubes for assaying chloramphenicol acetyltransferase (CAT) activity.
(§9) Before performing CAT assays on such cell lysates, the protein content of each lysate was first determined using a commercially-available assay (BioRad Laboratories, Richmond, Calif.). […]

[5] = system: estrogen responsive elements; details: in vitro; cited from earlier work
TGFβ-2 promoter = assay: CAT reporter expression, TGFβ-2 promoter (pTGF-1), MG63 cells cotransfected with pRSVER; details: TGFβ-2 promoter
Procedure: as §3, §4, §5, §6, §7, §8, §9

LDL receptor promoter [6] = assay: LDLR-Luc production in presence of ER (pLDLRLUC10 and pRSVER, HepG2 cells); type: cell-based, human; details: listed as estrogen
Excerpt: (§1) A 1546 base pair sequence of the human LDL receptor promoter was amplified using the polymerase chain reaction. A reaction mixture containing 20 picomoles each of the synthetic oligonucleotides:
(§2) The 1546 base pair fragment described above was isolated and cloned into the vector pSv2 containing firefly luciferase reporter gene that had been restriction enzyme digested to completion with NdeI and partially with HindIII. The resulting vector, pLDLRLUC10 contains the human LDL receptor promoter directing expression of the firefly luciferase gene, an ampicillin resistance marker and an origin of replication.
ATCC strain HepG2 cells were co-transfected with pLDLRLUC10 and pRSVER as described in Example IV.

TGFβ-3 promoter [7] = assay: TGFβ-3 activation in CHO cells (pB-301 and pRSVER, CAT); type: cell-based, hamster; details: 24 h, 0 M 10.6
Procedure: Hormones were dissolved in ethanol and applied to the cultures in media as described above.

TGFβ-3 promoter [8] = assay: TGFβ-3 activation in MCF-7 cells (pTGFβ-301LUC, luciferase); type: cell-based, human; details: 24 h, 0 M 7.8
Procedure: Cultures of MCF-7 cells were transiently transfected with pTGFβ-301LUCas described in Example IV.
After 24 hours of treatment with the hormonal preparation (or the vehicle control), the cells were washed, harvested, lysed and assayed for LUC activity according to the method of Example VI.

TGFβ-2 mRNA = details: T-47D and MDA-MB-231; cited from earlier work
[9] = system: estrogen responsive element (ERE) of the vitellogenin promoter; assay: Luciferase reporter induction, pGL2ERELUC (vitellogenin ERE) and pRSVER in MG63 cells; type: cell-based, human; details: for reporter gene expression, pGL2ERELUC: control 1.7
Excerpt: Complementary oligonucleotides corresponding to the estrogen-responsive element (ERE) from the Xenopus laevis vitellogenin Az gene promoter (corresponding to positions -341 to -310; Metzger et al., 1988, Nature 334: 31-36) were designed, synthesized and annealed to form a double-stranded region that is an estrogen responsive element essentially as described in Example I. A sequence comprising an XhoI restriction enzyme recognition site was synthesized to be flanking the ERE sequences, the element having the following nucleotide sequence (shown as SEQ ID NOS:8 and 9, respectively):
The double-stranded ERE was subcloned into XhoI-digested […] (Promega) whereby the luciferase gene was placed under the transcriptional influence of the ERE. This plasmid was designated pGL2ERELUC and used in further experiments as described below (Example VI).
Similar assays were performed using cultures of MG63 cells transiently transfected with pGL2ERELUC and pRSVER.
Transfected cells were treated with varying amounts and combinations of hormones and then rinsed twice with D-PBS. Cells were then lysed upon incubation with 250 μL of eukaryotic cell lysis reagent (as described in Example VI) at 4° C. for 20 min and transferred to microcentrifuge tubes by scraping with a rubber policeman. Cell lysates were centrifuged at 14,000 rpm for 1 minute to remove cell debris. Cell extracts (supernatant) were then assayed for protein content and luciferase activities.
Luciferase assays were performed as follows. 50 μL of each cell extract was added to 100 μL of reagent A buffer (containing 4.0 mM ATP/15 mM MgSO4 / 30 mM tricine buffer (pH 7.8)/ 10 mM DTT) in individual wells of a microtiter plate. 100 μL of 1 mM D(-)-luciferin (in 0.1M KPO4 (pH 7.8); Boehringer Mannheim) were added to each well and the amount of light produced measured by using a ML3000 microtiter plate luminometer (under conditions of integrate flash mode, high gain, integrate window=10 seconds, at a temperature of 22° C.). Luciferase activities were calculated as total light output relative to protein content in each cell lysate sample.

LDL receptor promoter [10] = assay: LDLR-Luc production in the absence of ER (pLDLRLUC10 and pRSV vector, HepG2 cells); type: cell-based, human; details: for LDLR-Luc production: no ER, 0 M 1597
Excerpt: as §1, §2
ATCC strain HepG2 cells were co-transfected with pLDLRLUC10 and pRSV vector plasmid as described in Example IV.

C[C@]12CC[C@@H]3c4ccc(O)cc4CC[C@H]3[C@@H]1CC[C@@H]2O [estradiol, 17β-estradiol]
LDL receptor messenger RNA (in words) [1]: induces LDL receptor messenger RNA in vivo
transcription initiated by the TGFβ-3 promoter (in words) (TGFβ-3 promoter [2]): induced
effect of lack of ER expression (in words) (TGFβ-3 promoter [3]; lack of ER expression): virtually abolishes expression of TGFβ-3
reporter gene expression, Control Plasmid (TGFβ-3 promoter [3]; no ER (pRSV vector), estradiol 10^-7 M, raloxifene 2×10^-6 M, vehicle 0.9): 1.0
reporter gene expression, ER Expression Plasmid (TGFβ-3 promoter [3]; pRSVER, estradiol 10^-7 M, raloxifene 2×10^-6 M, vehicle 1.3): 4.6
TGFβ-1 mRNA concentration (in words) (TGFβ-1 mRNA): Decreased concentrations of TGFβ-1 mRNA
fold induction at 0.1 µM (TGFβ-3 promoter [4]; Homo sapiens, MG-63, 24 h, read-out: Fold Ind.): 2.8
Act. (relative CAT activity) (TGFβ-3 promoter [4]; TGFβ-3 promoter, 10 μl of 10^-4 M in 10 ml medium, 24 h, control 0.7): 2.1
binding of estrogen receptor complex to estrogen responsive elements (in words) [5]: bind in vitro to DNA binding domains called estrogen responsive elements
Act. (relative CAT activity) (TGFβ-2 promoter; 10 μl of 10^-4 M in 10 ml medium, 24 h, control 0.8): 1.29
Fold Ind. (TGFβ-2 promoter; comparison with control, 1440 min, 0.1 µM): 1.6 fold
induction of LDL receptor promoter/expression (in words) (LDL receptor promoter [6]): mediated by ER; also recorded: have the ability to induce LDL receptor expression
CAT activity (TGFβ-3 promoter [7]; 10^-5 M): 33.3
CAT activity (TGFβ-3 promoter [7]; 10^-6 M): 32.9
CAT activity (TGFβ-3 promoter [7]; 10^-7 M): 29.4
CAT activity (TGFβ-3 promoter [7]; 10^-8 M): 22.6
CAT activity (TGFβ-3 promoter [7]; 10^-9 M): 11.9
Luciferase activity (TGFβ-3 promoter [8]; 10^-5 M): 122 thousands of units
Luciferase activity (TGFβ-3 promoter [8]; 10^-6 M): 101.3 thousands of units
Luciferase activity (TGFβ-3 promoter [8]; 10^-7 M): 107.3 thousands of units
Luciferase activity (TGFβ-3 promoter [8]; 10^-8 M): 9.1 thousands of units
Luciferase activity (TGFβ-3 promoter [8]; 10^-9 M): 19.2 thousands of units
TGFβ-2 mRNA expression (in words) (TGFβ-2 mRNA): reduced TGFβ-2 mRNA expression
induction of vitellogenin gene transcription (in words) [9]: strongly induced
reporter gene expression, pGL2ERELUC ([9]; 10^-5 M): 6.5
reporter gene expression, pGL2ERELUC ([9]; 10^-6 M): 6.2
reporter gene expression, pGL2ERELUC ([9]; 10^-7 M): 5.9
reporter gene expression, pGL2ERELUC ([9]; 10^-8 M): 5.5
reporter gene expression, pGL2ERELUC ([9]; 10^-9 M): 5.8
induction of LDLR promoter without ER (in words) (LDL receptor promoter [10]; at or below 10^-6 M, or high concentrations as worded, FIG. 16): No induction
LDLR-Luc production (LDL receptor promoter [10]; 10^-5 M): 2445
LDLR-Luc production (LDL receptor promoter [10]; 10^-6 M): 1578
LDLR-Luc production (LDL receptor promoter [10]; 10^-7 M): 1574
LDLR-Luc production (LDL receptor promoter [10]; 10^-8 M): 1792
LDLR-Luc production (LDL receptor promoter [10]; 10^-9 M): 1645
